The results in this text go back to patent US6949566B2, “Thiazole and oxazole derivatives” (Shionogi & Co. Ltd., priority 2000, dated 2005).

Holding throughout (type): biochemical
One experiment addresses T1, MMP-13 (Homo sapiens, UniProt P45452).
T1 construct: catalytic domain (^104Tyr˜^267Gly) was amplified with RT-PCR; His-tag; enterokinase digestion-site; made in house; host or cells: Escherichia coli
Put plainly: Assay for inhibitory activities on MMPs (fluorogenic peptide substrate), MMP-13. The following applies: catalytic domain 104Tyr-267Gly; substrate MOCAc-Pro-Leu-Gly-Leu-A2Pr(DNP)-Ala-Arg-NH2. On the procedure:
(§1) In regard to MMP-13, mRNA was prepared from carcinoma cell SW1353 derived from human cartilage stimulate by IL-1, TNF and catalytic domain (^104Tyr˜^267Gly) was amplified with RT-PCR. This was cloned in Escherichia. coli expression vector pTrc99AHE inserted with His-tag sequence and enterokinase digestion-site, induced and expressed by IPTG (Isopropyl-β-D-thiogalactopyranoside) and expressed in a insoluble fraction. Isolation of MMP-13 from an insoluble fraction was carried out by dissolving in modifier (6M urea) by a usual method and purification with metal chelate chromatography (Ni Chelateing Sepharose). And then removing modifier (6M urea) with dialyze and refolding of the enzyme spontaneously gave activated MMP-13.
(§2) The enzymatic activity on MMPs was analyzed by the method described in “C. Graham Knight, Frances Willenbrock and Gillian Murphy: A novel coumarin-labelled peptide for sensitive continuous assays of the matrix metalloproteinases: FEBS LETT., 296, (1992), 263-266”. The substrate MOCAc-Pro-Leu-Gly-Leu-A2Pr(DNP)-Ala-Arg-NH2 was purchased from Peptide Institute, Inc., Osaka, Japan. The measurement of the inhibitory activities (IC50) was carried out by the following four methods;
(§3) (A) Reaction with substrate, enzyme (MMPs) and inhibitor
(§4) (B) Reaction with substrate and inhibitor, without enzyme
(§5) (C) Reaction with substrate and enzyme (MMPs), without inhibitor
(§6) (D) Reaction with substrate only
(§7) IC50 values were calculated by using the following formula and each fluorescence values of above four methods (A to D). % inhibition={1−(A−B)/(C−D)}×100 IC50 means the concentration required to inhibit 50% of the enzyme activity.

Another experiment addresses T2, MMP-2 (Homo sapiens, UniProt P08253).
T2 construct: purchased Calbiochem-Novabiochem International, Inc
T2 sequence (P08253 110-660): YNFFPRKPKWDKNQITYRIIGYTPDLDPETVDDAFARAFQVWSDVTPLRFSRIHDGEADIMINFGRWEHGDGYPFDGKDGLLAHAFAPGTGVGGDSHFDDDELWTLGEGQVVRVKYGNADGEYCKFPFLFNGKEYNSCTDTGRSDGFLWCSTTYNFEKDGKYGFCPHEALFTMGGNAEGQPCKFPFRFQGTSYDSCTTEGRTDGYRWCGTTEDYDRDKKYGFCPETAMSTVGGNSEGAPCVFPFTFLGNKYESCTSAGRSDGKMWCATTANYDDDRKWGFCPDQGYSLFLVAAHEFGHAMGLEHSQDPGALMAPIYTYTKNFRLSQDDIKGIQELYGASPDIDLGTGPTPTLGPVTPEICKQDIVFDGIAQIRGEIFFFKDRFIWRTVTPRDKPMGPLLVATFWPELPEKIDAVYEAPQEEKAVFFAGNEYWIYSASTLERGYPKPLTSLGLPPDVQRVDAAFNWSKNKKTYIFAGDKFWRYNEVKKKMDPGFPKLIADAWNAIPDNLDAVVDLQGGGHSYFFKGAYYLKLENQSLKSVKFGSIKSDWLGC
As to the kind of experiment: Assay for inhibitory activities on MMPs (fluorogenic peptide substrate), MMP-2. The following applies: purchased MMP-2; substrate MOCAc-Pro-Leu-Gly-Leu-A2Pr(DNP)-Ala-Arg-NH2. On the procedure: MMP-2 was purchased from Calbiochem-Novabiochem International, Inc.
as §2, §3, §4, §5, §6, §7

Another experiment deals with T3, MMP-8 (Homo sapiens, UniProt P22894).
T3 construct: catalytic domain (^99Phe˜^262Gly) was amplified with PCR; His-tag; enterokinase digestion-site; made in house; host or cells: Escherichia coli
As to the kind of experiment: Assay for inhibitory activities on MMPs (fluorogenic peptide substrate), MMP-8. Particulars: catalytic domain 99Phe-262Gly; substrate MOCAc-Pro-Leu-Gly-Leu-A2Pr(DNP)-Ala-Arg-NH2.
Text: In regard to MMP-8, catalytic domain (^99Phe˜^262Gly) was amplified with PCR using commercial available Human Bone Marrow cDNA. This was cloned in Escherichia. coli expression vector pTrc99AHE inserted with His-tag sequence and enterokinase digestion-site, induced and expressed by IPTG (Isopropyl-β-D-thiogalactopyranoside) and expressed in a insoluble fraction (Thau F. Ho, M. Walid Qoronfleh, Robert C. Wahl, Trica A. Pulvino, Karen J. Vavra, Joe Falvo, Tracey M. Banks, Patricia G. Brake and Richard B. Ciccarelli: Gene expression, purification and characterization of recombinant human neutrophil collagenase. Gene 146, (1994) 297-301, Prepared by the a improved method of this material). Isolation of MMP-8 from an insoluble fraction was carried out by dissolving in modifier (6M urea) by a usual method and purification with metal chelate chromatography. And then removing modifier (6M urea) with dialysis and refolding of the enzyme spontaneously gave activated MMP-8.
as §2, §3, §4, §5, §6, §7

The target of another experiment is T4, MMP-12 (Homo sapiens, UniProt P39900).
T4 construct: catalytic domain(^100Phe˜^263Gly) was amplified with RT-PCR; His-tag; enterokinase digestion-site; made in house; host or cells: Escherichia coli
As to the kind of experiment: Assay for inhibitory activities on MMPs (fluorogenic peptide substrate), MMP-12. The following applies: catalytic domain 100Phe-263Gly; substrate MOCAc-Pro-Leu-Gly-Leu-A2Pr(DNP)-Ala-Arg-NH2. On the procedure:
as §1, with “MMP-12,” for “MMP-13, mRNA was prepared from carcinoma cell SW1353 derived from human cartilage stimulate by IL-1, TNF and”, “domain(^100Phe˜^263Gly)” for “domain (^104Tyr˜^267Gly)”, “RT-PCR from Human Placenta Total RNA.” for “RT-PCR.”, “MMP-12” for “MMP-13”, “dialysis” for “dialyze”, “MMP-12.” for “MMP-13.”
as §2, §3, §4, §5, §6, §7

In the next experiment the target is T5, MMP-9 (Homo sapiens, UniProt P14780).
T5 construct: endogenous in cells; host or cells: HT1080 human fibrosarcoma cells, TPA-stimulated; enzyme purified from conditioned medium
As to the kind of experiment: Assay for inhibitory activities on MMPs (fluorogenic peptide substrate), MMP-9. Particulars: MMP-9 from HT1080 cells, activated by TPCK-Trypsin; substrate MOCAc-Pro-Leu-Gly-Leu-A2Pr(DNP)-Ala-Arg-NH2.
Text: MMP-9 was isolated and purified by procedures described in as follows: Yasunori Okada, Yukio Gonoji, Katsumi Naka, Katsuro Tomita, Isao Nakanishi, Kazushi Iwata, Kyoko Yamashita, and Taro Hayakawa: Matrix metalloproteinase 9 (92-kDa gelatinase/type IV collagenase) from HT1080 human fibrosarcoma cells. Purification and activation of the precursor and enzymic properties J. Biol. Chem., 1992, 267 21712-21719, in combination with others: 1)Yasunori Okada, Tatsuhisa Morodomi, Jan J, Enghild, ko Suzuki, Atsushi Yasui, Isao Nakanishi, Guy Salvesen and Hideaki Nagase: Matrix metalloproteinase 2 from human rheumatoid synovial fibroblasts. Purification and activation of the precursor and enzymic properties. Eur. J. Biochem. 1990, 194 721-730; 2)Robin V Ward, Rosalind M Hembry, John J Reynolds and Gillian Murphy: The purification of tissue inhibitor of metalloproteinase-2 from its 72 kDa progelatinase complex. Biochem. J. 1991 278 179-187. In detail, human fibrosarcoma ATCC HT1080 cell line was cultured to confluent in Dulbecco's Modified Medium (DMEM) containing 10% fetal-calf serum at 37° C. for 48 hours. Subsequently, the medium of confluent culture was changed to serum-free DMEM medium. To obtain MMP-9, Phorbol-12-myristate-13-acetate (TPA) must be added to this serum-free DMEM medium at a concentration of 50 ng/ml. The TPA treated medium was centrifuged at 3000 rpm for 15 min and the supernatant was concentrated to 450 ml by a Toyo-Roshi UP-20 apparatus with an ultrafiltration membrane. Then, proMMP-9 in this concentrated solution was purified by using columns of Gelatin-Sepharose and Concanavalin A-Sepharose. The pool containing proMMP-9 was dialyzed, concentrated (Toyo-Roshi UP-20) and applied to columns of Sephacryl S-200 and Green A matrix for the separation from TIMPs. The obtained proMMP-9 fraction was activated by TPCK-Trypsin (Final conc. 3 μg/501 μl React Mix.).
as §2, §3, §4, §5, §6, §7

T5 sequence (P14780 107-707 limits assumed): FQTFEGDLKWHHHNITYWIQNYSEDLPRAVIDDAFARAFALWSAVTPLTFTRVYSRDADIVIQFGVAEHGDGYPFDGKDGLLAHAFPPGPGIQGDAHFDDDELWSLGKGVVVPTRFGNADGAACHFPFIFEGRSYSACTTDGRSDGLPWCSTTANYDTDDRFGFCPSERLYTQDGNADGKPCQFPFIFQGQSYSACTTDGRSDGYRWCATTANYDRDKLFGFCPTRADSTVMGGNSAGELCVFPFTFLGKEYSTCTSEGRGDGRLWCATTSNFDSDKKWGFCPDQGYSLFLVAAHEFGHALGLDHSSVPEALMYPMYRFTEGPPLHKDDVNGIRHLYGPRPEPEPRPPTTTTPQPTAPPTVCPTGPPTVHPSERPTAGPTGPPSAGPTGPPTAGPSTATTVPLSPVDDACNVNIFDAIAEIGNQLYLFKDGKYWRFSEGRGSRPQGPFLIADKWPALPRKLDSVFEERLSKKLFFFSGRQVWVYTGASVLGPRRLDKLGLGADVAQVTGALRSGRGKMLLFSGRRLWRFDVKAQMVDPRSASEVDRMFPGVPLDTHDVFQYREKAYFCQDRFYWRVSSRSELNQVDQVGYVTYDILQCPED
T4 sequence (P39900 100-263): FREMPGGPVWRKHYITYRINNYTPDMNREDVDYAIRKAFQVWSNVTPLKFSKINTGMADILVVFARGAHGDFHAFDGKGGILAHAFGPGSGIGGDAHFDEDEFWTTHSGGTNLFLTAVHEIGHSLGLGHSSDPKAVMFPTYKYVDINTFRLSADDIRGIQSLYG
T3 sequence (P22894 99-262): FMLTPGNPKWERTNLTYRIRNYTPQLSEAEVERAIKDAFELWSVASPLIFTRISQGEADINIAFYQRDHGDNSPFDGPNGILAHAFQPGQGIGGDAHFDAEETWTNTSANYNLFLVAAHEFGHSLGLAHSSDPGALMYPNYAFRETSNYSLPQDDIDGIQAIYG

Take `CSCC[C@@H](NS(=O)(=O)c1ccc(-c2ncc(-c3ccc(Cl)cc3)s2)cc1)C(=O)O` [Compound B-46]: the IC50 (usually the concentration at which inhibition is half-maximal) was determined as 11 nM on MMP-13; 1.17 nM against MMP-2; 57 nM against MMP-8; 1.08 nM at MMP-12; 24 nM at MMP-9.

Consider `CC(C)[C@H](NS(=O)(=O)c1ccc(-c2ncc(-c3ccc(Cl)cc3)o2)cc1)C(=O)O` [Compound A-24], for which the IC50 on MMP-13 is 678 nM; against MMP-2, 670 nM; against MMP-8 it was 337 nM; against MMP-12 it was 10 nM; at MMP-9, 2370 nM.

As for `CSCC[C@@H](NS(=O)(=O)c1ccc(-c2ncc(-c3ccc(Cl)cc3)o2)cc1)C(=O)O` [Compound A-36], the IC50 at MMP-13 worked out at 140 nM; on MMP-2, 16.3 nM; on MMP-8, 127 nM; at MMP-12 it was 2.98 nM; at MMP-9 it was 226 nM.

For `CC(C)[C@H](NS(=O)(=O)c1ccc(-c2ncc(-c3ccc(F)cc3)s2)cc1)C(=O)O` [Compound B-9], the IC50 is 13.1 nM at MMP-13; 8.05 nM against MMP-2; 12.5 nM against MMP-8; 1.33 nM at MMP-12; 55 nM at MMP-9.

Turning to `CC(C)[C@@H](NS(=O)(=O)c1ccc(-c2ncc(-c3ccc(Br)cc3)o2)cc1)C(=O)O` [Compound A-27], the IC50 at MMP-13 is 54.5 nM; against MMP-2, 6.08 nM; against MMP-8 it was 57.3 nM; against MMP-12 it was 1.55 nM; on MMP-9, 67.9 nM.

As to `O=C(O)[C@@H](Cc1c[nH]c2ccccc12)NS(=O)(=O)c1ccc(-c2ncc(-c3ccc(Cl)cc3)s2)cc1` [Compound B-51], the IC50 was determined as 2.66 nM on MMP-13; 0.276 nM against MMP-2; 66 nM at MMP-8; 0.761 nM on MMP-12; 4.24 nM on MMP-9.

Consider `CC(C)[C@@H](NS(=O)(=O)c1ccc(-c2ncc(-c3ccc(F)cc3)s2)cc1)C(=O)O` [Compound B-8], for which the IC50 was 9.53 nM on MMP-13; 1.38 nM at MMP-2; 10.5 nM at MMP-8; 1.96 nM against MMP-12; 11.1 nM at MMP-9.

With `C[C@@H](NS(=O)(=O)c1ccc(-c2ncc(-c3ccc4ccccc4c3)o2)cc1)C(=O)O` [Compound A-46], the IC50 on MMP-13 came to 19 nM; at MMP-2 it was 7.16 nM; against MMP-8 it was 279 nM; at MMP-12, 2.25 nM; at MMP-9 it was 157 nM.

`O=C(O)[C@@H](Cc1ccccc1)NS(=O)(=O)c1ccc(-c2ncc(-c3ccc(F)cc3)o2)cc1` [Compound A-19]: the IC50 was found to be 113 nM at MMP-13; 14.4 nM against MMP-2; 113 nM on MMP-8; 7.71 nM against MMP-12; 247 nM on MMP-9.

On to `COc1ccc(-c2cnc(-c3ccc(S(=O)(=O)N[C@@H](C)C(=O)O)cc3)s2)cc1` [Compound B-24], for which the IC50 at MMP-13 is 8.4 nM; against MMP-2, 6.3 nM; on MMP-8, 18.5 nM; at MMP-12 it was 1.5 nM; on MMP-9, 109 nM.

Take `O=C(O)[C@@H](Cc1ccccc1)NS(=O)(=O)c1ccc(-c2ncc(-c3ccccc3)s2)cc1` [Compound B-11]: the IC50 on MMP-13 amounted to 6.34 nM; at MMP-2, 1.08 nM; at MMP-8, 26.1 nM; at MMP-12, 2.4 nM; at MMP-9, 16.2 nM.

As for `O=C(O)[C@H](Cc1ccccc1)NS(=O)(=O)c1ccc(-c2ncc(-c3ccccc3)s2)cc1` [Compound B-12], the IC50 worked out at 9.3 nM against MMP-13; 1.44 nM on MMP-2; 25.9 nM at MMP-8; 3.69 nM at MMP-12; 66.9 nM on MMP-9.

As for `C[C@@H](NS(=O)(=O)c1ccc(-c2ncc(-c3ccc(F)cc3)o2)cc1)C(=O)O` [Compound A-6], the IC50 came out at 234 nM against MMP-13; 9.71 nM at MMP-2; 233 nM against MMP-8; 12.5 nM against MMP-12; 368 nM at MMP-9.

For the compound `C[C@H](NS(=O)(=O)c1ccc(-c2ncc(-c3ccc(Cl)cc3)o2)cc1)C(=O)O` [Compound A-5], the IC50 at MMP-12 worked out at 28.4 nM.

On to `O=C(O)[C@H](Cc1ccccc1)NS(=O)(=O)c1ccc(-c2ncc(-c3ccc(Cl)cc3)o2)cc1` [Compound A-16], for which the IC50 against MMP-13 is 774 nM; on MMP-2, 265 nM; against MMP-12, 26.2 nM; at MMP-9 it was 758 nM.

In the case of `CC(C)[C@H](NS(=O)(=O)c1ccc(-c2ncc(-c3ccc(F)cc3)o2)cc1)C(=O)O` [Compound A-26], the IC50 against MMP-2 came out at 514 nM; on MMP-8, 569 nM; against MMP-12, 40.2 nM; at MMP-9, 1810 nM.
